According to patent publication US11597962B2, “Rapid selective detection of bacteria” (priority 2017, dated 2023):
Positions of bridges follow the written chain, without caps; N, C: chain ends. No end group written: not given here.

How the values were obtained:
L. monocytogenes species = settings: against L. monocytogenes species; cited from earlier work
[1] = tested on: L. monocytogenes ATCC 19116; assay: Glass biosensor assay: peptide concentration optimization and limit of detection; assay type: binding, Listeria monocytogenes
Procedure: Optimization of peptide concentration. The bio-sensor was optimized by testing different LeuA concentrations. The slide was spotted with 10 μL of varying peptide concentrations (0, 0.013, 0.025, 0.064, or 0.13 mM). The peptide spot was allowed to air dry for 20 min. Next, bacteria (L. monocytogenes ATCC 19116) was spotted at a constant concentration (10 μL, 10^4 cfu). After drying, the slides were dipped in MilIQ water for 10 seconds. Lastly AuNC (12 μl) was spotted to quantify the fluorescence intensity of the spots.
Sensitivity and selectivity of the biosensor. To obtain the limit of detection (LOD), the biosensor assay was performed with varying number of bacteria in 10 μL sample. An overnight culture of L. monocytogenes ATCC 19116 was diluted to obtain samples with 0, 200, 1000, 2000, and 10000 cfu/10 μL. A glass slide was prepared with peptide spots (Leu A, 0.13 mM, 10 μL) as descried above and bacteria (10 μL) were spotted on the peptide spot followed by AuNC labeling and fluorescence recording using Chemidoc imager.

[2] = tested on: L. monocytogenes ATCC 19116; assay: LeuA-conjugated PVDF membrane assay: sample volumes and limit of detection; assay type: binding, Listeria monocytogenes
Procedure: Detection of L. monocytogenes from different sample volumes. Six circular membranes conjugated with peptide LeuA were prepared as described above. Peptide-conjugated membranes were exposed to three samples of different volumes (500 μL, 1 mL, and 5 mL) each containing same number of L. monocytogenes ATCC 19116 (2000 cfu). Membranes were also exposed to samples (water) with no bacteria (500 μL, 1 mL, and 5 mL) to serve as controls. After passing the samples through the membranes, all membranes were reacted with AuNC (500 μL, 100 μL stock diluted to 500 μL with water) to label the bound bacteria. Excess AuNC from each membrane was removed by vacuum and the membrane was allowed to dry for ˜15-20 mins before fluorescence imaging. The fluorescence of each membrane was read using a BioRad Imager. […] The increase in fluorescence was calculated using the following equation. [formula] Estimation of the limit of detection for L. monocytogenes. Four circular membranes conjugated with peptide LeuA were prepared as described above. The membranes were exposed to samples (500 μL) containing different numbers of L. monocytogenes ATCC 19116 (0, 200, 2000, or 20000 CFU). The rest of the assay was performed as described above.

S. aureus ATCC 29213 = assay: Selectivity of the biosensor assay, S. aureus; assay type: binding, Staphylococcus aureus; settings: 10^4 cells/10 μL; control 12000±2000
Procedure: (§1) The selectivity of the biosensor assay was tested with three L. monocytogenes strains (ATCC 43256, ATCC 19116, and Pat Type 1), B. cereus ATCC 14579, S. aureus ATCC 29213, S. enterica, and E. coli DHα. Water (no bacteria) was used as a control. Another control used was with a negative peptide (24-mer) spot, and L. monocytogenes 19116 was used. The biosensor assay was performed as described above.

S. aureus ATCC 13565 = settings: observed previously; cited from earlier work
L. monocytogenes Type I = assay: Bioactivity agar plate assay (zone of inhibition); assay type: cell-based, Listeria monocytogenes; settings: peptide 2.3, 0.23, 0.023 mM, 10 μL spots; 37° C., 24 hours
Procedure: Bioactivity. LeuA and negative peptide were checked for activity using agar plate inoculated with L. monocytogenes Type I. Briefly, a TSB agar plate was spotted with different concentrations of peptide (2.3, 0.23, and 0.023 mM, dissolved in water) with a spot volume of 10 μL. Then the 6 mL soft agar inoculated with 60 μL L. monocytogenes (overnight culture, undiluted) was plated over the TSB agar. The plate was incubated at 37° C. and zone of inhibition was checked after 24 hours.

[3] = tested on: L. monocytogenes strains (ATCC 43256, ATCC 19116, and Pat Type 1); assay: Selectivity of the biosensor assay, Listeria strains; assay type: binding, Listeria monocytogenes; settings: 10^4 cells/10 μL; control sample (water) 12000±2000
Procedure: as §1

B. cereus ATCC 14579 = assay: Selectivity of the biosensor assay, B. cereus; assay type: binding, Bacillus cereus; settings: 10^4 cells/10 μL; control 12000±2000
Procedure: as §1

[4] = tested on: L. monocytogenes ATCC 43256; assay: Detecting L. monocytogenes using AuNC on LeuA-spotted glass surface; assay type: binding, Listeria monocytogenes; settings: Leu A 10 μL 0.13 mM, 10^4 cells, AuNC 12 μL; AuNC alone 31860±11608, peptide + AuNC without bacteria 34352±1812
Procedure: Detecting L. monocytogenes using AuNC on glass surface. An aqueous solution of Leu A (10 μL, 0.13 mM) was spotted on a glass slide (˜4 mm diameter) in triplicate. The peptide spots were allowed to air dry (˜20 min). This was followed by spotting bacteria L. monocytogenes ATCC 43256 (10 μL, 10^4 cells) or no bacteria (10 μL water) on top of the peptide spot. The glass slide was then dipped in MilIQ water for 10 seconds to remove all non-bound bacteria. The slide was allowed to air dry and finally AuNC (12 μL) was deposited on each spot. AuNC (12 μL) alone was also spotted as a control. The mean fluorescence intensity was recorded using Chemidoc imager. The experiment was repeated three times.

E. coli DHα = assay: Selectivity of the biosensor assay, E. coli; assay type: binding, Escherichia coli; settings: 10^4 cells/10 μL; one value for both Gram-negative bacteria; control 12000±2000
Procedure: as §1

[5] = tested on: Listeria innocua ATCC 33091; assay: Detection of bacteria using AuNC on LeuA-conjugated PVDF membrane; assay type: binding; settings: 5000 cfu in 500 μL water; baseline without bacteria 3880
From the text: Detection of bacteria using AuNC on membrane. A low-fluorescence polyvinylidene difluoride (PVDF) membrane (Thermo Scientific) was cut into 3 small circular pieces (˜0.75 cm radius). The circular membrane was placed on a membrane holder which was connected to a side arm Erlenmeyer flask with vacuum. Each membrane was first washed with copious amount of water by allowing water to filter through the membrane using a gentle vacuum. Membranes 1 and 2 were then conjugated with peptide LeuA by delivering 100 μL peptide solution (0.012 mM). The peptide was allowed to bind the membrane for ˜20 minutes and then excess, unbound peptide was removed by vacuum. Next, the peptide-conjugated membranes were exposed to samples with bacteria (5000 cfu Listeria innocua ATCC 33091 in 500 μL water; membrane 1) or without bacteria (500 μL water; membrane 2). […] Excess AuNC was removed by vacuum and the membrane was allowed to dry for ˜15-20 mins before fluorescence imaging. The fluorescence of each membrane was read using BioRad Imager (FIG. 12). […] The fluorescence for the peptide-conjugated membrane alone (no bacteria; membrane 2) could be due to the binding of AuNC to the peptide. This represents baseline fluorescence (3880) and any increase in fluorescence from baseline represents the presence of bacteria as shown in FIG. 12. […]

L. monocytogenes 19116 = assay: Detection of Listeria monocytogenes in spiked milk sample (glass biosensor); assay type: binding; settings: whole milk (3.5% fat) diluted with water, 10^3 cells/μL
Procedure: Detection of Listeria monocytogenes in spiked milk sample. A spiked milk sample was prepared using milk (3.5% fat, 1 mL) diluted with water (9 mL). L. monocytogenes 19116 was added to the diluted milk to obtain a bacterial concentration of 10^4 cfu/10 μL. Water was used as a control. The biosensor assay was performed on the spiked milk sample as described above.

[6] = tested on: S. enterica Serovar Enteritidis; assay: Selectivity of the biosensor assay, S. enterica; assay type: binding, Salmonella enterica; settings: 10^4 cells/10 μL; one value for both Gram-negative bacteria; control 12000±2000
Procedure: as §1

| Substance | minimum inhibitory concentration (MIC) (L. monocytogenes species) | fluorescence of bound bacteria ([1]; 2000 cfu bacteria per spot) | fluorescence of bound bacteria ([1]; 10000 cfu bacteria per spot) | fluorescence of bound bacteria (highest) ([1]; peptide concentration 0.13 mM, 10 μL, bacteria 10^4 cfu/10 μL) | percent increase in fluorescence ([2]; 200 cfu in 500 μL) | percent increase in fluorescence ([2]; 2000 cfu in 500 μL) | percent (%) increase in fluorescence ([2]; 2000 cfu in 500 μL, 1 mL and 5 mL) | percent increase in fluorescence ([2]; 20000 cfu in 500 μL) | fluorescence of AuNC-labeled bound bacteria (S. aureus ATCC 29213) | binding of bacteria to peptide (S. aureus ATCC 13565) | activity in bioactivity plate assay (zone of inhibition) (L. monocytogenes Type I) | fluorescence of AuNC-labeled bound bacteria [3] | fluorescence of AuNC-labeled bound bacteria (B. cereus ATCC 14579) | MFI of AuNC-labeled bacteria bound to peptide [4] | fluorescence of AuNC-labeled bound bacteria (E. coli DHα) | fluorescence of membrane [5] | fluorescence of spiked milk sample compared to the milk alone (L. monocytogenes 19116) | fluorescence of AuNC-labeled bound bacteria [6] |
| --- | --- | --- | --- | --- | --- | --- | --- | --- | --- | --- | --- | --- | --- | --- | --- | --- | --- | --- |
| Leucocin A (KYYGNGVHCTKSGCSVNWGEAFSAGVHRLANGGNGFW-OH; disulfide 9-14 (inferred)) [LeuA] | low nanomolar range | 31473±2932 | 30842±4696 | 21275±2177 | 11.7% | 15.9% | 15-20% | 26.1% | 18000±2100 | Low binding | active | 28000-33000 | 13000±1600 | 62390±5975 | 12000±800 | 7776 | significantly higher fluorescence | 12000±800 |
| negative control (20-mer) peptide: short sequence (20-mer; SEQ ID NO:2) derived from LeuA known not to bind L. monocytogenes (NGVHATKSGASVNWGEAFSA; Control Leucocin A fragment) [reference compound] | – | – | – | – | – | – | – | – | – | – | inactive | 12164±2937 | – | – | – | – | – | – |
